Experimental data from patent US20180289689A1, “USE OF CCR5 ANTAGONISTS ALONE OR IN COMBINATION THERAPY FOR THE TREATMENT OF CANCER” (RUPRECHT-KARLS-UNIVERSITÄT HEIDELBERG, priority 2014, published 2018).

What was measured:
[1] = test system: colorectal cancer liver metastases; assay: Tumor explant model from freshly resected colorectal cancer liver metastases; assay type: cell-based, human; conditions: FIG. 1
From the text: Tumor explant models. Tumor explant models were generated from freshly resected colorectal cancer liver metastases. Explanted tissue specimens were cut into three equal parts, placed in unconditioned medium and either treated with DMSO or Maraviroc (in DMSO) or without any addition. The explants were then harvested and subjected to histological analyses (see FIG. 1) and multiplex protein analysis (see FIG. 3).

[2] = test system: colorectal cancer patients with hepatic metastases; assay: MARACON-001 phase I trial, Maraviroc monotherapy; assay type: in vivo, human; conditions: for Objective response (RECIST)/ other responses: Patient 4, colorectal cancer (metastatic: lung and liver), monotherapy
From the text: Clinical trial. A trial in colorectal cancer patients with hepatic metastases was initiated. […] In the trial, patients receive Maraviroc daily for two months. Safety and feasibility are the primary endpoints of this ongoing trial. The trial is being conducted according to the Declaration of Helsinki and relevant International Conference on Harmonization Good Clinical Practice guidelines and with approval from the ethics committee of the University of Heidelberg. […] All provided written informed consent before participating in this study. The overall workflow of the trial is depicted in FIG. 2.
Assessment of proliferation in histology samples. Briefly cryo sections were fixed with 4% paraformaldehyde (PFA, Sigma Aldrich, Germany). The sections were blocked with 10% normal goat serum (Vector, USA). […] The slides were incubated with a secondary antibody (rabbit-anti-mouse IgG, Bond Polymer Refine Detection System, Leica, Germany) for 8 minutes at room temperature. Further amplification of the signal was achieved through incubation with a third antibody, conjugated with horse radish peroxidase and coupled to dextrane molecules in large numbers, for 8 minutes at room temperature (Poly-HRP-mouse-anti-rabbit IgG, Bond Polymer Refine Detection System, Leica, Germany). The antigen detection was performed by a color reaction with 3,3-di-amino-benzidine (DAB chromogen, Bond Polymer Refine Detection System, Leica, Germany). The sections were counterstained with hematoxylin (Bond Polymer Refine Detection System, Leica, Germany) and mounted with Aquatex (Merck, Germany). Assessment was performed with the Visiomorph Software Package (Visiopharm, Denmark) to quantify positive tumor cells.

Cc1nnc(C(C)C)n1[C@@H]1C[C@H]2CC[C@@H](C1)N2CC[C@H](NC(=O)C1CCC(F)(F)CC1)c1ccccc1 [Maraviroc, 4,4-difluoro-N-{(1S)-3-[3-(3-isopropyl-5-methyl-4H-1,2,4-triazol-4-yl)-8-azabicyclo[3.2.1]oct-8-yl]-1-phenylpropyl}cyclohexanecarboxamide] was tested, and the “tumor cell death upon inhibition of CCR5” value ([1]; explants treated with Maraviroc (in DMSO)) was “clear tumor cell death”, the “effects in the adjacent liver” value ([1]; explants treated with Maraviroc) was “no effects” and the “histology of treated section (hemalaun counterstaining)” value ([1]; treated section vs untreated control section) was “Large areas of necrosis and only few remaining tumor cells”. For the same compound, the “tumor cell death in patients (biopsies)” value ([2]; Maraviroc 300 mg/bid, second biopsy after 8-10 days) was “tumor cell death”, the “Objective response (RECIST)/ other responses” value ([2]; liver) was −10% (liver) and the “Objective response (RECIST)/ other responses” value ([2]; lung) was −50% (lung),. For the same compound, the “radiologically measured area of necrosis of liver metastases” value ([2]; before vs after therapy, percentage of necrotic area of reference lesion, FIG. 5) was “increase in necrotic area”, the “proliferation activity (Ki67 percentage) of tumor cells” value ([2]; before vs under treatment (8-10 days, second biopsy), FIG. 4) was “Reductions” and the “key cytokines for tumor growth, chemotherapy resistance or angiogenesis” value ([2]; day 0 (pretreatment) vs day 9 of treatment, FIG. 3) was “Marked Changes”. The tolerability ([2]; patients) was “well-tolerated” and the side effects ([2]; patients, so far) was “does not have significant side effects”.
